{"source": "patent US20230257367A1", "about": "“NOVEL THYROID HORMONE BETA RECEPTOR AGONIST” (Chengdu Kanghong Pharmaceutical Co., Ltd., priority 2020, published 2023)", "key": {"[1]": {"molecular_target": "T1, TRβ-LBD/RXRα (Homo sapiens, UniProt P10828)", "T1 construct": "TRβ-LBD (Invitrogen, PV4764) with a GST tag were used; purchased Invitrogen (TRβ-LBD); Pharmaron (RXRα) PV4764", "T1 sequence (P19793 whole entry partner, other chains not shown, the tested form may be a part)": "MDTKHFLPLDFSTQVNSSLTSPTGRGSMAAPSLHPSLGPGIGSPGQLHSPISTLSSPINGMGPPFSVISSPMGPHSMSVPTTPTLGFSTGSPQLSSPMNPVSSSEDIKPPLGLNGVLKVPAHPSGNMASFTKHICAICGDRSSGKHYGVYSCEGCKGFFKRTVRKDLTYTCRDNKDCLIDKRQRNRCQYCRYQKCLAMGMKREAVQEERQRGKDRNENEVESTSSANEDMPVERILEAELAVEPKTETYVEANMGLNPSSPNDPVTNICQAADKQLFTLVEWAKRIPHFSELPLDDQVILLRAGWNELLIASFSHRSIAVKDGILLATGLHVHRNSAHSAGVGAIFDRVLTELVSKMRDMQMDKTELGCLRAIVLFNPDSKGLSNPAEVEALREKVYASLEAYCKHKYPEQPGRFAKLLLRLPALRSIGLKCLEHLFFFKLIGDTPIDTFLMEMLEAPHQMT", "test": "In vitro binding experiment (TR-FRET SRC2-2 co-activator peptide recruitment), TRβ", "format": "biochemical", "conditions": "4 h incubation at room temperature"}, "[2]": {"molecular_target": "T2, TRβ (Homo sapiens, UniProt P10828)", "T2 construct": "host or cells: HEK293T", "T2 sequence (P10828 217-461 limits assumed)": "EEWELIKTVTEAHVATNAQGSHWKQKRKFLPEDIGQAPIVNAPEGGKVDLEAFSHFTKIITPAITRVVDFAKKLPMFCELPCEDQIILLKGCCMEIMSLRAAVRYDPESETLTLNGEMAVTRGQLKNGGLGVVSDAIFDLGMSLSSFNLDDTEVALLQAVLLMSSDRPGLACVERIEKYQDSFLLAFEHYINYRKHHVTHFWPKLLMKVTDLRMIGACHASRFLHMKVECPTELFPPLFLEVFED", "T2 sequence (P19793 227-458 partner limits assumed)": "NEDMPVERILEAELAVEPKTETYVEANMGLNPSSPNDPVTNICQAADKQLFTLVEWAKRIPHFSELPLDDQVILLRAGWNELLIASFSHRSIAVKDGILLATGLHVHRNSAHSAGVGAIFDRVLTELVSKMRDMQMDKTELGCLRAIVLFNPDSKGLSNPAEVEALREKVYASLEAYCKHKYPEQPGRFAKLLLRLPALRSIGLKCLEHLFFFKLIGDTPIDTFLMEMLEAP", "test": "In vitro TRβ cell transfection experiment (GAL4 luciferase reporter, HEK293T)", "format": "cell-based"}, "[3]": {"system": "NASH model", "test": "In vivo pharmacological experiment: DIO + CCl4 induced NASH model", "design": "species or system C57BL/6J male mice", "conditions": "oral, once per day", "experimental": "In the early stages of this experiment, mice induced by DIO (diet-induced obesity) were fed with a high-fat diet, followed by intraperitoneal injection of CCl4 during high-fat diet feeding to induce the NASH model. In this model, the anti-NASH efficacy of the compound to be tested was evaluated Animal information: C57BL/6J male mice (18 weeks old) were used, comprising 32 DIO mice+8 normal mice, wherein the weight of DIO mice >38 g. [table] [table] Induction with CCl4: A 25% (volume ratio) of CCl4 solution was prepared by placing 1 part CCl4 and 3 parts olive oil in a glass bottle. The solution was mixed well and used right after it was ready Eight mice in the first group were intraperitoneally injected with normal saline solution as normal controls The mice in the 2rd to 5th groups were intraperitoneally injected with 25% CCl4 solution twice a week. 25% (volume ratio) CCl4 was administered by body weight, 0.5 ml/kg. The interval between the injection time of CCl4 and the time of administration on the day should be more than 4 hours Histopathological Analysis All liver samples were dehydrated by a dehydrating instrument (Leica HistoCore Pearl-0348) and then embedded by a paraffin embedding machine (HistoCoreArcadia). The embedded liver sample was then sliced using a Lecia RM2235 machine. NAS Score NAS scores were performed on HE (hematoxylin-eosin) stained slices as the sum of steatosis, balloon degeneration, and lobular inflammation. [table] […] Percentage of Fibrosis All slices stained with Sirius red were scanned by a Leica Aperio AT2 Brightfield scanner, and then a percentage of Sirius red positive staining area was calculated by the HALO AI system to evaluate the percentage area of the Sirius red in the total liver area scanned."}, "[4]": {"molecular_target": "T3, TRα (Homo sapiens, UniProt P10827)", "T3 construct": "host or cells: HEK293T", "T3 sequence (P10827 1-410 isoform P10827-2)": "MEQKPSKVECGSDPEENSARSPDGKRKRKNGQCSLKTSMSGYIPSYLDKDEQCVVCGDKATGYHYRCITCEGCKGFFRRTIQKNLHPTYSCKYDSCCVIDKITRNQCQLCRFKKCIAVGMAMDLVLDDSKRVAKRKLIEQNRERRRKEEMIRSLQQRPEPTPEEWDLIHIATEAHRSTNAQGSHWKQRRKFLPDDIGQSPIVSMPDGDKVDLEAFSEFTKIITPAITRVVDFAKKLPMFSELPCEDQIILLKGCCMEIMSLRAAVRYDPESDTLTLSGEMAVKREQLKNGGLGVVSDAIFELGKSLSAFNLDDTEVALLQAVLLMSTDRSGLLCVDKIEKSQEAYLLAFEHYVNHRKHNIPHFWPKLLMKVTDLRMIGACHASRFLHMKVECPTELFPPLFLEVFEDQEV", "T3 sequence (P19793 227-458 partner limits assumed)": "T2 sequence (P19793 227-458 partner limits assumed)", "test": "In vitro TRα cell transfection experiment (GAL4 luciferase reporter, HEK293T)", "format": "cell-based"}, "[5]": {"molecular_target": "T4, TRα-LBD/RXRα (Homo sapiens, UniProt P10827)", "T4 construct": "TRα-LBD (Invitrogen, PV4762), or TRβ-LBD (Invitrogen, PV4764) with a GST tag were used; purchased Invitrogen (TRα-LBD); Pharmaron (RXRα) PV4762", "T4 sequence (P19793 whole entry partner, other chains not shown, the tested form may be a part)": "as the sequence (P19793 whole entry partner, other chains not shown, the tested form may be a part) above", "test": "In vitro binding experiment (TR-FRET SRC2-2 co-activator peptide recruitment), TRα", "format": "biochemical", "conditions": "4 h incubation at room temperature"}}, "data": [{"smiles": "CC(C)c1nc(Oc2c(Cl)cc(-n3ncc(=O)[nH]c3=O)cc2Cl)ncc1O", "note": "[KH06]", "values": [{"measurement": "EC50", "setting": "[1]", "result": 0.007, "unit": "µM"}, {"measurement": "EC50", "setting": "[2]", "result": 0.009, "unit": "µM"}, {"measurement": "NAS score (sum of steatosis, ballooning degeneration and lobular inflammation)", "setting": "[3]; 1 and 3 mg/kg, compared with the model group, FIG. 2", "result": "significant reduction in score"}, {"measurement": "fibrosis evaluation (percentage of Sirius red positive area)", "setting": "[3]; 1 and 3 mg/kg, day 0 to day 27, FIG. 1", "result": "reducing the proportion of fibrosis"}, {"measurement": "fibrosis efficacy compared with MGL3196 at 3 mg/kg", "setting": "[3]; KH06 1 mg/kg, FIG. 1", "result": "better than that of MGL3196 at a dosage of 3 mg/kg"}, {"measurement": "NAS score efficacy compared with MGL3196 at 3 mg/kg", "setting": "[3]; KH06 1 mg/kg, FIG. 2", "result": "same efficacy as MGL3196 at 3 mg/kg"}, {"measurement": "EC50", "setting": "[4]", "result": 0.037, "unit": "µM"}, {"measurement": "EC50", "setting": "[5]", "result": 0.094, "unit": "µM"}]}]}
